We go through 22 molecules from US8426345B2, “Method of drug design” (Alchemia Limited, priority 2005, dated 2013).

The assay deals with T1, Human SST5 somatostatin receptor (Homo sapiens, UniProt P35346).
T1 construct: expressed in transfected cells; host or cells: HEK-293 EBNA cells (membranes)
Put plainly: Filter plate radio-ligand binding assay for SST5 receptor ([125I]SST-14 displacement). To be noted: 3P library; for % SST5 radio-ligand binding displaced at conc 0.001: conc 0.001 μM; for % SST5 radio-ligand binding displaced at conc 0.10: conc 0.10 μM; for % SST5 radio-ligand binding displaced at conc 0.5: conc 0.5 μM; for % SST5 radio-ligand binding displaced at conc 1.0: conc 1.0 μM; for % SST5 radio-ligand binding displaced at conc 10: conc 10 μM; for % SST5 radio-ligand binding displaced at conc 0.25: conc 0.25 μM.

T1 sequence (P35346 whole entry): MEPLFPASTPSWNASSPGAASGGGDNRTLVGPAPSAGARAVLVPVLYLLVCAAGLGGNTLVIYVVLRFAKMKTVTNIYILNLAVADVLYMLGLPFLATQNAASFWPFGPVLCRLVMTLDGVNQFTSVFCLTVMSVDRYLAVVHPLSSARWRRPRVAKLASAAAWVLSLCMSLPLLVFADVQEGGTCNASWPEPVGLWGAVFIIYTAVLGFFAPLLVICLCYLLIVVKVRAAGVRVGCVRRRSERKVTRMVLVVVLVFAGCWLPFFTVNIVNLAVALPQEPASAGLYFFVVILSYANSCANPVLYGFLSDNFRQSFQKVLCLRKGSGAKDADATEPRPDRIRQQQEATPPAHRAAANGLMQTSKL

`COCC1OC(OCc2ccc3ccccc3c2)C(NC(=O)CCCN)C(OCc2ccc(Cl)cc2)C1O` (mixture of isomers) [Compound 127]: the “% SST5 radio-ligand binding displaced at conc 0.001” value is recorded as “− (% SST5 radio-ligand binding displaced at cone (μM) −<40%)”, the “% SST5 radio-ligand binding displaced at conc 0.10” value is “− (% SST5 radio-ligand binding displaced at cone (μM) −<40%)”, the “% SST5 radio-ligand binding displaced at conc 0.5” value is “++ (% SST5 radio-ligand binding displaced at conc (μM) >60%)” and the “% SST5 radio-ligand binding displaced at conc 1.0” value is listed as “++ (% SST5 radio-ligand binding displaced at conc (μM) >60%)”. The “% SST5 radio-ligand binding displaced at conc 10” value is on record as “++ (% SST5 radio-ligand binding displaced at conc (μM) >60%)”.

Consider `COCC1OC(OCc2ccc3ccccc3c2)C(NC(=O)CCCN)C(OCc2ccc(-c3ccccc3)cc2)C1O` (mixture of isomers) [Compound 128], for which the “% SST5 radio-ligand binding displaced at conc 0.001” value is listed as “− (% SST5 radio-ligand binding displaced at cone (μM) −<40%)”, the “% SST5 radio-ligand binding displaced at conc 0.10” value was “− (% SST5 radio-ligand binding displaced at cone (μM) −<40%)”, the “% SST5 radio-ligand binding displaced at conc 0.25” value is “− (% SST5 radio-ligand binding displaced at cone (μM) −<40%)” and the “% SST5 radio-ligand binding displaced at conc 0.5” value is “++ (% SST5 radio-ligand binding displaced at conc (μM) >60%)”. Further, the “% SST5 radio-ligand binding displaced at conc 1.0” value is “+ (% SST5 radio-ligand binding displaced at cone (μM) 60>+>40%)” and the “% SST5 radio-ligand binding displaced at conc 10” value was “++ (% SST5 radio-ligand binding displaced at conc (μM) >60%)”.

Take `COCC1OC(OCc2ccc3ccccc3c2)C(NC(=O)CCCN)C(OCc2ccc3ccccc3c2)C1O` (mixture of isomers) [Compound 129]: the “% SST5 radio-ligand binding displaced at conc 0.001” value is listed as “− (% SST5 radio-ligand binding displaced at cone (μM) −<40%)”, the “% SST5 radio-ligand binding displaced at conc 0.10” value is on record as “+ (% SST5 radio-ligand binding displaced at cone (μM) 60>+>40%)”, the “% SST5 radio-ligand binding displaced at conc 0.25” value is “− (% SST5 radio-ligand binding displaced at cone (μM) −<40%)” and the “% SST5 radio-ligand binding displaced at conc 1.0” value is listed as “++ (% SST5 radio-ligand binding displaced at conc (μM) >60%)”. For the same molecule, the “% SST5 radio-ligand binding displaced at conc 10” value is listed as “++ (% SST5 radio-ligand binding displaced at conc (μM) >60%)”.

In the case of `COCC1OC(OCc2ccc3ccccc3c2)C(NC(=O)CCCN)C(OCc2cccc(O)c2)C1O` (mixture of isomers) [Compound 130], the “% SST5 radio-ligand binding displaced at conc 10” value was “++ (% SST5 radio-ligand binding displaced at conc (μM) >60%)”.

`COCC1OC(OCc2ccc3ccccc3c2)C(NC(=O)CCCN)C(OCc2ccc(-c3ccccc3)cc2)C1O` (mixture of isomers) [Compound 131]: the “% SST5 radio-ligand binding displaced at conc 10” value was “++ (% SST5 radio-ligand binding displaced at conc (μM) >60%)”.

For the molecule `COCC1OC(OCc2ccc3ccccc3c2)C(NC(=O)CCCN)C(OCc2ccc3ccccc3c2)C1O` (mixture of isomers) [Compound 132], the “% SST5 radio-ligand binding displaced at conc 10” value was “++ (% SST5 radio-ligand binding displaced at conc (μM) >60%)”.

As to `COCC1OC(OCc2ccc3ccccc3c2)C(NC(=O)CCCN)C(OCc2ccc(Cl)cc2)C1O` (mixture of isomers) [Compound 133], the “% SST5 radio-ligand binding displaced at conc 10” value is “++ (% SST5 radio-ligand binding displaced at conc (μM) >60%)”.

As for `COCC1OC(OCc2ccc(Cl)cc2)C(NC(=O)CN)C(OCc2ccccc2)C1O` (mixture of isomers) [Compound 160], the “% SST5 radio-ligand binding displaced at conc 0.001” value is “− (% SST5 radio-ligand binding displaced at cone (μM) −<40%)”, the “% SST5 radio-ligand binding displaced at conc 0.10” value was “− (% SST5 radio-ligand binding displaced at cone (μM) −<40%)”, the “% SST5 radio-ligand binding displaced at conc 0.5” value is recorded as “− (% SST5 radio-ligand binding displaced at cone (μM) −<40%)” and the “% SST5 radio-ligand binding displaced at conc 1.0” value is “− (% SST5 radio-ligand binding displaced at cone (μM) −<40%)”. Besides, the “% SST5 radio-ligand binding displaced at conc 10” value is reported as “− (% SST5 radio-ligand binding displaced at cone (μM) −<40%)”.

Regarding `COCC1OC(OCc2ccc(Cl)cc2)C(NC(=O)CN)C(OCc2ccc(Cl)cc2)C1O` (mixture of isomers) [Compound 161], the “% SST5 radio-ligand binding displaced at conc 0.001” value is given as “− (% SST5 radio-ligand binding displaced at cone (μM) −<40%)”, the “% SST5 radio-ligand binding displaced at conc 0.10” value was “− (% SST5 radio-ligand binding displaced at cone (μM) −<40%)”, the “% SST5 radio-ligand binding displaced at conc 0.5” value is on record as “− (% SST5 radio-ligand binding displaced at cone (μM) −<40%)” and the “% SST5 radio-ligand binding displaced at conc 1.0” value is given as “− (% SST5 radio-ligand binding displaced at cone (μM) −<40%)”. In addition, the “% SST5 radio-ligand binding displaced at conc 10” value is “++ (% SST5 radio-ligand binding displaced at conc (μM) >60%)”.

On to `COCC1OC(OCc2ccc(Cl)cc2)C(NC(=O)CN)C(OCc2ccc(-c3ccccc3)cc2)C1O` (mixture of isomers) [Compound 162], for which the “% SST5 radio-ligand binding displaced at conc 0.001” value is reported as “− (% SST5 radio-ligand binding displaced at cone (μM) −<40%)”, the “% SST5 radio-ligand binding displaced at conc 0.10” value is “− (% SST5 radio-ligand binding displaced at cone (μM) −<40%)”, the “% SST5 radio-ligand binding displaced at conc 0.25” value is recorded as “− (% SST5 radio-ligand binding displaced at cone (μM) −<40%)” and the “% SST5 radio-ligand binding displaced at conc 0.5” value is “− (% SST5 radio-ligand binding displaced at cone (μM) −<40%)”. In addition, the “% SST5 radio-ligand binding displaced at conc 1.0” value is reported as “− (% SST5 radio-ligand binding displaced at cone (μM) −<40%)” and the “% SST5 radio-ligand binding displaced at conc 10” value is recorded as “+ (% SST5 radio-ligand binding displaced at cone (μM) 60>+>40%)”.

Turning to `COCC1OC(OCc2ccc(Cl)cc2)C(NC(=O)CN)C(OCc2ccc3ccccc3c2)C1O` (mixture of isomers) [Compound 163], the “% SST5 radio-ligand binding displaced at conc 0.001” value is listed as “− (% SST5 radio-ligand binding displaced at cone (μM) −<40%)”, the “% SST5 radio-ligand binding displaced at conc 0.10” value is listed as “− (% SST5 radio-ligand binding displaced at cone (μM) −<40%)”, the “% SST5 radio-ligand binding displaced at conc 0.5” value was “− (% SST5 radio-ligand binding displaced at cone (μM) −<40%)” and the “% SST5 radio-ligand binding displaced at conc 1.0” value is “− (% SST5 radio-ligand binding displaced at cone (μM) −<40%)”. The “% SST5 radio-ligand binding displaced at conc 10” value was “++ (% SST5 radio-ligand binding displaced at conc (μM) >60%)”.

For `COC1C(O)C(COCc2ccc3ccccc3c2)OC(OCc2ccc(Cl)cc2)C1NC(=O)C1CCCN1` (mixture of isomers) [Compound 165], the “% SST5 radio-ligand binding displaced at conc 0.5” value was “− (% SST5 radio-ligand binding displaced at cone (μM) −<40%)” and the “% SST5 radio-ligand binding displaced at conc 10” value is reported as “++ (% SST5 radio-ligand binding displaced at conc (μM) >60%)”.

Regarding `COC1C(O)C(COCc2ccc3ccccc3c2)OC(OCc2ccc(Cl)cc2)C1NC(=O)C1CCCN1` (mixture of isomers) [Compound 167], the “% SST5 radio-ligand binding displaced at conc 0.5” value is “++ (% SST5 radio-ligand binding displaced at conc (μM) >60%)” and the “% SST5 radio-ligand binding displaced at conc 10” value is reported as “++ (% SST5 radio-ligand binding displaced at conc (μM) >60%)”.

For `COCC1OC(OCc2ccc(Cl)cc2)C(NC(=O)CN)C(OCc2ccc(-c3ccccc3)cc2)C1O` (mixture of isomers) [Compound 173], the “% SST5 radio-ligand binding displaced at conc 0.25” value is recorded as “− (% SST5 radio-ligand binding displaced at cone (μM) −<40%)” and the “% SST5 radio-ligand binding displaced at conc 1.0” value is “− (% SST5 radio-ligand binding displaced at cone (μM) −<40%)”.

In the case of `COCC1OC(OCc2ccc(Cl)cc2)C(NC(=O)CN)C(OCc2ccc3ccccc3c2)C1O` (mixture of isomers) [Compound 174], the “% SST5 radio-ligand binding displaced at conc 0.25” value is “− (% SST5 radio-ligand binding displaced at cone (μM) −<40%)” and the “% SST5 radio-ligand binding displaced at conc 1.0” value is “− (% SST5 radio-ligand binding displaced at cone (μM) −<40%)”.

For the molecule `COCC1OC(OCc2ccc(Cl)cc2)C(NC(=O)CN)C(OCc2ccc3ccccc3c2)C1O` (mixture of isomers) [Compound 175], the “% SST5 radio-ligand binding displaced at conc 0.25” value is “− (% SST5 radio-ligand binding displaced at cone (μM) −<40%)” and the “% SST5 radio-ligand binding displaced at conc 1.0” value is “− (% SST5 radio-ligand binding displaced at cone (μM) −<40%)”.

Regarding `COC1C(O)C(COCc2ccccc2)OC(OCc2ccc(Cl)cc2)C1NC(=O)CN` (mixture of isomers) [Compound 176], the “% SST5 radio-ligand binding displaced at conc 0.25” value is given as “− (% SST5 radio-ligand binding displaced at cone (μM) −<40%)” and the “% SST5 radio-ligand binding displaced at conc 1.0” value is on record as “− (% SST5 radio-ligand binding displaced at cone (μM) −<40%)”.

For the molecule `COC1C(O)C(COCc2ccc(Cl)cc2)OC(OCc2ccc(Cl)cc2)C1NC(=O)CN` (mixture of isomers) [Compound 177], the “% SST5 radio-ligand binding displaced at conc 0.25” value is on record as “− (% SST5 radio-ligand binding displaced at cone (μM) −<40%)” and the “% SST5 radio-ligand binding displaced at conc 1.0” value is on record as “− (% SST5 radio-ligand binding displaced at cone (μM) −<40%)”.

In the case of `COC1C(O)C(COCc2ccc(-c3ccccc3)cc2)OC(OCc2ccc(Cl)cc2)C1NC(=O)CN` (mixture of isomers) [Compound 178], the “% SST5 radio-ligand binding displaced at conc 0.25” value is recorded as “− (% SST5 radio-ligand binding displaced at cone (μM) −<40%)” and the “% SST5 radio-ligand binding displaced at conc 1.0” value was “− (% SST5 radio-ligand binding displaced at cone (μM) −<40%)”.

Take `COC1C(O)C(COCc2ccc3ccccc3c2)OC(OCc2ccc(Cl)cc2)C1NC(=O)CN` (mixture of isomers) [Compound 179]: the “% SST5 radio-ligand binding displaced at conc 0.25” value is listed as “− (% SST5 radio-ligand binding displaced at cone (μM) −<40%)” and the “% SST5 radio-ligand binding displaced at conc 1.0” value is “− (% SST5 radio-ligand binding displaced at cone (μM) −<40%)”.

Turning to `COC[C@H]1OC(OCc2ccc3ccccc3c2)[C@H](NC(=O)CCN)[C@@H](OCc2ccccc2)[C@@H]1O` (single isomer, unassigned) [Compound 87], the “% SST5 radio-ligand binding displaced at conc 0.25” value is reported as “− (% SST5 radio-ligand binding displaced at cone (μM) −<40%)” and the “% SST5 radio-ligand binding displaced at conc 1.0” value is listed as “− (% SST5 radio-ligand binding displaced at cone (μM) −<40%)”.

Take `COC[C@H]1OC(OCc2ccc3ccccc3c2)[C@H](NC(=O)CCN)[C@@H](OCc2ccccc2)[C@@H]1O` (single isomer, unassigned) [Compound 88]: the “% SST5 radio-ligand binding displaced at conc 0.25” value was “− (% SST5 radio-ligand binding displaced at cone (μM) −<40%)” and the “% SST5 radio-ligand binding displaced at conc 1.0” value is reported as “− (% SST5 radio-ligand binding displaced at cone (μM) −<40%)”.
